In patent US9023855B2, “Compounds” (Chiesi Farmaceutici S.p.A., priority 2011, dated 2015) one finds IC50 data, which are given here for 21 molecules.

Structures are written as SMILES.

The target of the assay is T1, human neutrophil elastase (HNE) (Homo sapiens, UniProt P08246).
T1 construct: purchased Sigma E8140
T1 sequence (P08246 30-267): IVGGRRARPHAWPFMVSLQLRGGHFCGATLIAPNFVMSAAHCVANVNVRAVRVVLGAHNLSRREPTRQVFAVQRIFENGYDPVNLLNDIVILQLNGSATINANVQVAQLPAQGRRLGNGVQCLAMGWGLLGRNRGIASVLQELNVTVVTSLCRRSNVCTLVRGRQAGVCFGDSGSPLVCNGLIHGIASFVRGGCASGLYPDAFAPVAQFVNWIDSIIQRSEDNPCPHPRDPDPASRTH
Nature of the assay: HNE enzyme assay (fluorogenic peptide substrate MeOSuc-Ala-Ala-Pro-Val-AMC). The assay is classed as biochemical. The following applies: human leukocyte elastase, substrate 100 μM, 25° C., 30 minutes, at least two separate experiments; read-out: HNE inhibition (IC50 values). The method, then:
Compounds of this invention were tested for potency in a human neutrophil elastase (HNE) enzyme activity assay.
Assays were performed in 96-well plates in a total assay volume of 100 μl. The final concentration of elastase enzyme (human leukocyte elastase, Sigma E8140) was 0.0036 units/well […]. The peptide substrate (MeOSuc-Ala-Ala-Pro-Val-AMC, Calbiochem #324740) was used at a final concentration of 100 μM. The final concentration of DMSO was 1% in the assay buffer (0.05M Tris.HCl, 0.1M NaCl, 0.1M CaCl2, 0.0005% brij-35, pH 7.5). The enzymatic reaction was started by addition of the enzyme and incubated at 25° C. for 30 minutes. After incubation, the reaction was stopped by addition of soybean trypsin inhibitor (Sigma T9003) at a final concentration of 50 μg/well. Fluorescence was measured using a Molecular Devices fluorescence plate reader using 380 nm excitation and 460 nm emission wavelengths.
A dose response to each compound was performed, and the effect of the compound in each experiment was expressed as a percentage inhibition of the control enzyme fluorescence. Dose response curves were plotted and compound potency (IC50) was determined. Compounds were tested in at least two separate experiments.
Regarding `CC1=C(C#N)C(c2ccc(C#N)cc2)n2c(nn(CCCS(=O)(=O)CCC[N+](C)(C)C)c2=O)N1c1cccc(C(F)(F)F)c1` (stereo not drawn) [Example 39, (3-{3-[6-Cyano-5-(4-cyano-phenyl)-7-methyl-3-oxo-8-(3-trifluoromethyl-phenyl)-5,8-dihydro-[1,2,4]triazolo[4,3-a]pyrimidin-2-yl]-propane-1-sulfonyl}-propyl)-trimethylammonium toluene-4-sulfonate], the half-maximal inhibitory concentration (IC50) (commonly the concentration needed to halve the response being measured) is below 20 nM.
As to `COC(=O)C1=C(C)N(c2cccc(C(F)(F)F)c2)c2nn(CC(=O)N(C)CCN(C)C)c(=O)n2C1c1ccc(C#N)cc1` (stereo not drawn) [Example 25, 5-(4-Cyano-phenyl)-2-{[(2-dimethylamino-ethyl)-methyl-carbamoyl]-methyl}-7-methyl-3-oxo-8-(3-trifluoromethyl-phenyl)-2,3,5,8-tetrahydro-[1,2,4]triazolo[4,3-a]pyrimidine-6-carboxylic acid methyl ester], the IC50 was below 20 nM.
`COC(=O)C1=C(C)N(c2cccc(C(F)(F)F)c2)c2nn(Cc3ccc(S(C)(=O)=O)cc3)c(=O)n2[C@@H]1c1ccc(C#N)cc1` [Example 17, (R)-5-(4-Cyano-phenyl)-2-(4-methanesulfonyl-benzyl)-7-methyl-3-oxo-8-(3-trifluoromethyl-phenyl)-2,3,5,8-tetrahydro-[1,2,4]triazolo[4,3-a]pyrimidine-6-carboxylic acid methyl ester]: the half-maximal inhibitory concentration (IC50) is below 20 nM.
With `COC(=O)C1=C(C)N(c2cccc(C(F)(F)F)c2)c2nn(CCCN3CCCC3=O)c(=O)n2C1c1ccc(C#N)cc1` (stereo not drawn) [Example 24, 5-(4-Cyano-phenyl)-7-methyl-3-oxo-2-[3-(2-oxo-pyrrolidin-1-yl)-propyl]-8-(3-trifluoromethyl-phenyl)-2,3,5,8-tetrahydro-[1,2,4]triazolo[4,3-a]pyrimidine-6-carboxylic acid methyl ester] the figure was below 20 nM.
The figure for `CC1=C(C(=O)OCCN(C)C)C(c2ccc(C#N)cc2)n2c(n[nH]c2=O)N1c1cccc(C(F)(F)F)c1` (stereo not drawn) [Example 10, 5-(4-Cyano-phenyl)-7-methyl-3-oxo-8-(3-trifluoromethyl-phenyl)-2,3,5,8-tetrahydro-[1,2,4]triazolo[4,3-a]pyrimidine-6-carboxylic acid 2-dimethylamino-ethyl ester] is below 20 nM; for `COC(=O)C1=C(C)N(c2cccc(C(F)(F)F)c2)c2nn(C)c(=O)n2C1c1ccc(C#N)cc1` (stereo not drawn) [Example 6, 5-(4-Cyanophenyl)-2,7-dimethyl-3-oxo-8-(3-trifluoromethylphenyl)-2,3,5,8-tetrahydro-[1,2,4]triazolo[4,3-a]pyrimidine-6-carboxylic acid methyl ester] it is below 20 nM; for `CC1=C(C(=O)O)C(c2ccc(C#N)cc2)n2c(n[nH]c2=O)N1c1cccc(C(F)(F)F)c1` (stereo not drawn) [Example 9, 5-(4-Cyano-phenyl)-7-methyl-3-oxo-8-(3-trifluoromethyl-phenyl)-2,3,5,8-tetrahydro-[1,2,4]triazolo[4,3-a]pyrimidine-6-carboxylic acid] it is below 20 nM.
With `C=CCn1nc2n(c1=O)C(c1ccc(C#N)cc1)C(C(=O)OC)=C(C)N2c1cccc(C(F)(F)F)c1` (stereo not drawn) [Example 5, 2-Allyl-5-(4-cyanophenyl)-7-methyl-3-oxo-8-(3-trifluoromethyl-phenyl)-2,3,5,8-tetrahydro-[1,2,4]triazolo[4,3-a]pyrimidine-6-carboxylic acid methyl ester] the figure was below 20 nM; with `COC(=O)C1=C(C)N(c2cccc(C(F)(F)F)c2)c2nn(CCCN(C)C)c(=O)n2C1c1ccc(C#N)cc1` (stereo not drawn) [Example 3], below 20 nM; with `COC(=O)C1=C(C)N(c2cccc(C(F)(F)F)c2)c2nn(CCCN(C)S(C)(=O)=O)c(=O)n2C1c1ccc(C#N)cc1` (stereo not drawn) [Example 36, 5-(4-Cyano-phenyl)-2-[3-(methanesulfonyl-methyl-amino)-propyl]-7-methyl-3-oxo-8-(3-trifluoromethyl-phenyl)-2,3,5,8-tetrahydro-[1,2,4]triazolo[4,3-a]pyrimidine-6-carboxylic acidmethyl ester], below 20 nM.
Turning to `COC(=O)C1=C(C)N(c2cccc(C(F)(F)F)c2)c2nn(CCCS(C)(=O)=O)c(=O)n2[C@@H]1c1ccc(C#N)cc1` [Example 18, (R)-5-(4-Cyano-phenyl)-2-(3-methanesulfonyl-propyl)-7-methyl-3-oxo-8-(3-trifluoromethyl-phenyl)-2,3,5,8-tetrahydro-[1,2,4]triazolo[4,3-a]pyrimidine-6-carboxylic acid methyl ester], the IC50 is below 20 nM.
With `COC(=O)C1=C(C)N(c2cccc(C(F)(F)F)c2)c2nn(CCCS(C)(=O)=O)c(=O)n2C1c1ccc(C#N)cc1` (stereo not drawn) [Example 16, 5-(4-Cyano-phenyl)-2-(3-methanesulfonyl-propyl)-7-methyl-3-oxo-8-(3-trifluoromethyl-phenyl)-2,3,5,8-tetrahydro-[1,2,4]triazolo[4,3-a]pyrimidine-6-carboxylic acid methyl ester] the figure was below 20 nM; with `CCNC(=O)C1=C(C)N(c2cccc(C(F)(F)F)c2)c2n[nH]c(=O)n2C1c1ccc(C#N)cc1` (stereo not drawn) [Example 12, 5-(4-Cyano-phenyl)-7-methyl-3-oxo-8-(3-trifluoromethyl-phenyl)-2,3,5,8-tetrahydro-[1,2,4]triazolo[4,3-a]pyrimidine-6-carboxylic acid ethylamide], 20 to 100 nM; with `COC(=O)C1=C(C)N(c2cccc(C(F)(F)F)c2)c2nn(CC(=O)N(C)CC[N+](C)(C)C)c(=O)n2C1c1ccc(C#N)cc1` (stereo not drawn) [Example 27, [2-({2-[5-(4-Cyano-phenyl)-6-methoxycarbonyl-7-methyl-3-oxo-8-(3-trifluoromethyl-phenyl)-5,8-dihydro-[1,2,4]triazolo[4,3-a]pyrimidin-2-yl]-acetyl}-methyl-amino)-ethyl]trimethyl-ammonium bromide], below 20 nM.
`COC(=O)C1=C(C)N(c2cccc(C(F)(F)F)c2)c2n[nH]c(=O)n2C1c1ccc(C#N)cc1` (stereo not drawn) [Example 1, 5-(4-Cyanophenyl)-7-methyl-3-oxo-8-(3-trifluoromethylphenyl)-2,3,5,8-tetrahydro-[1,2,4]triazolo[4,3-a]pyrimidine-6-carboxylic acid methyl ester]: the IC50 is below 20 nM.
`COC(=O)C1=C(C)N(c2cccc(C(F)(F)F)c2)c2nn(S(=O)(=O)c3ccc(CN(C)CCN(C)C)cc3)c(=O)n2C1c1ccc(C#N)cc1` (stereo not drawn) [Example 19, 5-(4-Cyano-phenyl)-2-(4-{[(2-dimethylamino-ethyl)-methyl-amino]-methyl}-benzenesulfonyl)-7-methyl-3-oxo-8-(3-trifluoromethyl-phenyl)-2,3,5,8-tetrahydro-[1,2,4]triazolo[4,3-a]pyrimidine-6-carboxylic acid methyl ester]: the IC50 was in the range of 20 to 100 nM.
Regarding `COC(=O)C1=C(C)N(c2cccc(C(F)(F)F)c2)c2nn(CC(=O)N(C)CCC[N+](C)(C)C)c(=O)n2C1c1ccc(C#N)cc1` (stereo not drawn) [Example 28, [3-({2-[5-(4-Cyano-phenyl)-6-methoxycarbonyl-7-methyl-3-oxo-8-(3-trifluoromethyl-phenyl)-5,8-dihydro-[1,2,4]triazolo[4,3-a]pyrimidin-2-yl]-acetyl}-methyl-amino)propyl]-trimethyl-ammonium; bromide], the IC50 was below 20 nM.
With `COC(=O)C1=C(C)N(c2cccc(C(F)(F)F)c2)c2nn(CCc3ccc(S(C)(=O)=O)cc3)c(=O)n2[C@@H]1c1ccc(C#N)cc1` [Example 20, (R)-5-(4-Cyano-phenyl)-2-[2-(4-methanesulfonyl-phenyl)-ethyl]-7-methyl-3-oxo-8-(3-trifluoromethyl-phenyl)-2,3,5,8-tetrahydro-[1,2,4]triazolo[4,3-a]pyrimidine-6-carboxylic acid methyl ester] the figure was below 20 nM; with `CC1=C(C(=O)OCCCN(C)C)C(c2ccc(C#N)cc2)n2c(n[nH]c2=O)N1c1cccc(C(F)(F)F)c1` (stereo not drawn) [Example 11, 5-(4-Cyano-phenyl)-7-methyl-3-oxo-8-(3-trifluoromethyl-phenyl)-2,3,5,8-tetrahydro-[1,2,4]triazolo[4,3-a]pyrimidine-6-carboxylic acid 3-dimethylamino-propyl ester], below 20 nM; with `COC(=O)C1=C(C)N(c2cccc(C(F)(F)F)c2)c2nn(CC(=O)N(C)CCCC[N+](C)(C)C)c(=O)n2C1c1ccc(C#N)cc1` (stereo not drawn) [Example 31, [4-({2-[5-(4-Cyano-phenyl)-6-methoxycarbonyl-7-methyl-3-oxo-8-(3-trifluoromethyl-phenyl)-5,8-dihydro-[1,2,4]triazolo[4,3-a]pyrimidin-2-yl]-acetyl}-methyl-amino)-butyl]-trimethylammonium bromide], below 20 nM.
The figure for `COC(=O)C1=C(C)N(c2cccc(C(F)(F)F)c2)c2nn(Cc3ccc(CN(C)C)cc3)c(=O)n2C1c1ccc(C#N)cc1` (stereo not drawn) [Example 21, 5-(4-Cyano-phenyl)-2-(4-dimethylaminomethyl-benzyl)-7-methyl-3-oxo-8-(3-trifluoromethyl-phenyl)-2,3,5,8-tetrahydro-[1,2,4]triazolo[4,3-a]pyrimidine-6-carboxylic acid methyl ester] is below 20 nM.
